Experimental data from ChEMBL document CHEMBL1201862, “PubChem BioAssay data set” (2004).
Active and inactive are the calls of the source.

Tests used:
cells [1] = format: functional, cell-based
cells [2] = format: functional, cell-based; remark: listed apart in the source
[3] = biological target: Mitogen-activated protein kinase 10 (Homo sapiens, UniProt P53779); assay: Dose response biochemical screening assay for inhibitors of c-Jun N-Terminal Kinase 3 (JNK3). [Related pubchem assays: 746 ]
BJ [4] = assay: BJ-TERT fibroblast viability loss – cell-based, RAS-independent, luminescence, dose response (AID 1933); format: functional; conditions: Homo sapiens
Vero [5] = assay: mammalian cell viability reduction – secondary assay, cytotoxicity control for West Nile virus antiviral project, dose response (AID 1650); format: functional; conditions: Chlorocebus sabaeus
BJ [6] = assay: cells; format: functional, cell-based; conditions: Homo sapiens
BJ [7] = assay: BJ-TERT-LT-ST fibroblast viability loss – cell-based, RAS-independent, luminescence, dose response (AID 1935); format: functional; conditions: Homo sapiens;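 also: BJ fibroblasts immortalized with TERT plus LT and ST oncogenes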
[8] = DRD fibroblast viability loss – cell-based, non-viral oncogenic, luminescence, dose response (AID 1934); format: functional; conditions: Homo sapiens
Vero [9] = assay: cells; format: functional, cell-based; conditions: Chlorocebus sabaeus
Vero [10] = assay: cells; format: functional; conditions: Chlorocebus sabaeus
[11] = Luminescence-based dose response cell-based high throughput screening assay for cytotoxic compounds using the IEC-6 intestinal epithelial cell line. [Related pubchem assays: 1858 (Summary AID.), 1825 (Counterscreen.), 1907 (Confirmation screen.)]; format: functional
cells [12] = format: functional, cell-based; remark: listed apart in the source
[13] = biological target: T1, Nuclear receptor subfamily 0 group B member 1 (Homo sapiens, UniProt P51843); format: functional, cell-based;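 also: HEK293T cells transfected with SF-1 and DAX-1 plus StAR promoter luciferase reporter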
T1 sequence (P51843 whole entry): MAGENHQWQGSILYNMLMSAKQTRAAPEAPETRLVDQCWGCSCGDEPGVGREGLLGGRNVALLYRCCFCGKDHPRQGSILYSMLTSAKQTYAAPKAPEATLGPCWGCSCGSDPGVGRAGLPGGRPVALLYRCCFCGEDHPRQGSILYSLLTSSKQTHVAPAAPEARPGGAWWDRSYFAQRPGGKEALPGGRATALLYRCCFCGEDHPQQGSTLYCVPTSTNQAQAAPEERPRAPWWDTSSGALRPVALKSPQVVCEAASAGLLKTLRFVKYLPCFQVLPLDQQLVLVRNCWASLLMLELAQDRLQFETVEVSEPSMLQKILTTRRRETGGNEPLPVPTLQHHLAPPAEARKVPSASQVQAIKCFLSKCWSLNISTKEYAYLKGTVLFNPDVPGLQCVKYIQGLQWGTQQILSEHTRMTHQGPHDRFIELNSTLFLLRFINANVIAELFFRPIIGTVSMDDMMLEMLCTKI

[14] = biological target: Peroxisome proliferator-activated receptor gamma/Nuclear receptor corepressor 2 (Homo sapiens, UniProt P37231+Q9Y618); assay: Counterscreen for NR2E3 inverse agonists: TR-FRET-based biochemical high throughput dose response assay to identify inverse agonists of the interaction between peroxisome proliferator-activated receptor gamma (PPARg) and nuclear receptor co-repressor 2 (NCOR2).; format: functional
Peroxisome proliferator-activated receptor gamma/Nuclear receptor corepressor 2, sequence (P37231 whole entry): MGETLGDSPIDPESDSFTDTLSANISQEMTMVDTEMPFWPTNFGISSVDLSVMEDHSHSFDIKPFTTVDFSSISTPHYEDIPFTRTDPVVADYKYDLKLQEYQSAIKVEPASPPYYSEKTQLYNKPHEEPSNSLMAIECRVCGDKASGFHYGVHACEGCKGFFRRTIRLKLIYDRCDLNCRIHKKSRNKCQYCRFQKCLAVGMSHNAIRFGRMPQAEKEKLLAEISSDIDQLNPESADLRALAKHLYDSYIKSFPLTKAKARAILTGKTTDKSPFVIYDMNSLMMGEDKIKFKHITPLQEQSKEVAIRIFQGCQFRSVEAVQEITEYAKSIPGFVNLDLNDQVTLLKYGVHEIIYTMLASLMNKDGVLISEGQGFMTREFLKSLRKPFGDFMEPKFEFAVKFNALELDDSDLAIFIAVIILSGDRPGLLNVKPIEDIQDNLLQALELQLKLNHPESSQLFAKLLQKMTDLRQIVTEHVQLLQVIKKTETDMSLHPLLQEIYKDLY
Peroxisome proliferator-activated receptor gamma/Nuclear receptor corepressor 2, sequence (Q9Y618 whole entry): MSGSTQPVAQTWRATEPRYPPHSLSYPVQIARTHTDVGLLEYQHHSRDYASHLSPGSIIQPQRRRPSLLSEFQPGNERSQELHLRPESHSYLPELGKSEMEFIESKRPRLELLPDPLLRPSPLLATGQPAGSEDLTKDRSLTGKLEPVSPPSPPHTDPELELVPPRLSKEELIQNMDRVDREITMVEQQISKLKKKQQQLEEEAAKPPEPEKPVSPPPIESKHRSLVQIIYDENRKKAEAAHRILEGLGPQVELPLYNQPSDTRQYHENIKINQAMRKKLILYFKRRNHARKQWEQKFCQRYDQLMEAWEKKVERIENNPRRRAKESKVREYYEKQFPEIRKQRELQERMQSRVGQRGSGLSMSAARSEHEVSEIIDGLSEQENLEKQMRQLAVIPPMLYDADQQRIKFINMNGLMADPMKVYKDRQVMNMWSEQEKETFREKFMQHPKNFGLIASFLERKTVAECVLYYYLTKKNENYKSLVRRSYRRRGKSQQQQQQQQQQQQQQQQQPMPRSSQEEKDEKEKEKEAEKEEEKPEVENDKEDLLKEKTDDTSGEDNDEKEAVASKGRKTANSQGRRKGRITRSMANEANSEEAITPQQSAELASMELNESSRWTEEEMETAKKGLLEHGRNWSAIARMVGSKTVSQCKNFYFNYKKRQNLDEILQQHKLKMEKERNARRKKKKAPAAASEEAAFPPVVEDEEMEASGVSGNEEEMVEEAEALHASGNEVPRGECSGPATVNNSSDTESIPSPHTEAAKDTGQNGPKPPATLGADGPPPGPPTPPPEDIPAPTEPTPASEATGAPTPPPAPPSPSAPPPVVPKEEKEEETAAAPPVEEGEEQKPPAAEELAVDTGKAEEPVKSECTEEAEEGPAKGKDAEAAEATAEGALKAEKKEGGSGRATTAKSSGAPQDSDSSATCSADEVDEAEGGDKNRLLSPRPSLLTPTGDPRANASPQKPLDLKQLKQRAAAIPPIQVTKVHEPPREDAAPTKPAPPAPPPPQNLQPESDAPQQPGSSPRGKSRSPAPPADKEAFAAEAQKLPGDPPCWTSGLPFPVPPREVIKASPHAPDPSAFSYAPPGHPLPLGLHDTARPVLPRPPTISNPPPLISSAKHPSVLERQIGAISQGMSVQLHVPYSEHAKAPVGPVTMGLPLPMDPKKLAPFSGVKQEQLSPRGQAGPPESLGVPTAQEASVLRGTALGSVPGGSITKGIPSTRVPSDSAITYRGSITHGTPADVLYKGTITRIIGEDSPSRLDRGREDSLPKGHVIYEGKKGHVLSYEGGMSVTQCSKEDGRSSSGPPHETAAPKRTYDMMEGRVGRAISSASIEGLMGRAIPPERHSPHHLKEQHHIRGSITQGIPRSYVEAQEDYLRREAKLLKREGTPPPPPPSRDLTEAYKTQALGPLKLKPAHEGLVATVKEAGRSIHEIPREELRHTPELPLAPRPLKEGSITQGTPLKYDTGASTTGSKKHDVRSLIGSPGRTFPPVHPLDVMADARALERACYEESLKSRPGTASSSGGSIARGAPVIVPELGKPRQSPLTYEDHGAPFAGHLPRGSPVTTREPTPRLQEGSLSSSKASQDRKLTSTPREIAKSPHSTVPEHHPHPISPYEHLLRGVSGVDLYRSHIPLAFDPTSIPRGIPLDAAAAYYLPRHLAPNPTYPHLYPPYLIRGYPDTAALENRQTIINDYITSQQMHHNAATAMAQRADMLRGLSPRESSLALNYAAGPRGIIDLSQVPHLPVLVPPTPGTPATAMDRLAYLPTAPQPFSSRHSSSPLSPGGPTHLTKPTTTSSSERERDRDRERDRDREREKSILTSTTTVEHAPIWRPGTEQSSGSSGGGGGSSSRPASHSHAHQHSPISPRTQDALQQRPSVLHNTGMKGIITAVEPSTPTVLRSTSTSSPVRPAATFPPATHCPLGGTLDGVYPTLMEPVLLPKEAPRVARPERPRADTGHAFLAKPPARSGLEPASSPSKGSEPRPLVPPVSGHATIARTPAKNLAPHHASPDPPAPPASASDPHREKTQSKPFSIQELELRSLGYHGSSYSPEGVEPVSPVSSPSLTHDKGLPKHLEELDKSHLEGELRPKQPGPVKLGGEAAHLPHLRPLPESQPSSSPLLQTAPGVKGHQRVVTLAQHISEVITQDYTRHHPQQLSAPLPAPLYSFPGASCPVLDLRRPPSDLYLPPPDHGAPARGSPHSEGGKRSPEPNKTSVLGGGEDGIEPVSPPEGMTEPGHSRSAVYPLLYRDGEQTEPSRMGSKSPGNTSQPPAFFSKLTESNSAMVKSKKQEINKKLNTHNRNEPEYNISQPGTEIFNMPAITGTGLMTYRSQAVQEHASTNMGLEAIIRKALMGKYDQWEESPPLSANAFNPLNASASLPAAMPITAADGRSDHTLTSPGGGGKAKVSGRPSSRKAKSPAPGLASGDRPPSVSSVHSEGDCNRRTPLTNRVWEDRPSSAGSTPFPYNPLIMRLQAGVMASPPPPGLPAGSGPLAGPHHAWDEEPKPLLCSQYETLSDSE

[15] = biological target: Photoreceptor-specific nuclear receptor (Homo sapiens, UniProt Q9Y5X4); assay: ligands suppressing NR2E3 nuclear receptor activity – biochemical, TR-FRET, dose response (AID 463256); format: functional
Photoreceptor-specific nuclear receptor, sequence (Q9Y5X4 whole entry): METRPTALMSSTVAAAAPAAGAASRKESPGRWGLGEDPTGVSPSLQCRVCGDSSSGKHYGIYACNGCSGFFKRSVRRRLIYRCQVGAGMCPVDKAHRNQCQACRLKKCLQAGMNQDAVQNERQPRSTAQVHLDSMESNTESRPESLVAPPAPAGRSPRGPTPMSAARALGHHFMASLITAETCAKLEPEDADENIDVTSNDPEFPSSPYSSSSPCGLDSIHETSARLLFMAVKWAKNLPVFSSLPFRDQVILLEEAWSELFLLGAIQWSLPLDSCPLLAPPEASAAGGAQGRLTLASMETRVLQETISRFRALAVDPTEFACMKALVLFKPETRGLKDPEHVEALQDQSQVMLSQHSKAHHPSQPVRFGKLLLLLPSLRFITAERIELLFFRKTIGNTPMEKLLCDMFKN

[16] = Trypanosoma cruzi growth suppression in host cells – NIH3T3 host cells, beta-gal luminescence, confirmation (AID 2044); format: functional, cell-based;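 also: intracellular parasites grown in NIH/3T3 mouse fibroblasts as host cells; luminescent beta-galactosidase reporter signal from transgenic T. cruzi replicating inside host cells; inhibitors lower the luminescence signal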
[17] = NIH3T3 cell viability loss – ATP luminescence, mouse fibroblasts, counter-screen, dose response (AID 2010); format: functional, cell-based;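 also: cells exposed to compound for about 90 hours before reading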
cells [18] = format: functional, cell-based; remark: listed apart in the source
[19] = biological target: T2, Trace amine-associated receptor 1 (Homo sapiens, UniProt Q96RJ0); assay: Fluorescence-based cell-based high throughput dose response assay to identify agonists of the human trace amine associated receptor 1 (TAAR1).; format: functional
T2 sequence (Q96RJ0 whole entry): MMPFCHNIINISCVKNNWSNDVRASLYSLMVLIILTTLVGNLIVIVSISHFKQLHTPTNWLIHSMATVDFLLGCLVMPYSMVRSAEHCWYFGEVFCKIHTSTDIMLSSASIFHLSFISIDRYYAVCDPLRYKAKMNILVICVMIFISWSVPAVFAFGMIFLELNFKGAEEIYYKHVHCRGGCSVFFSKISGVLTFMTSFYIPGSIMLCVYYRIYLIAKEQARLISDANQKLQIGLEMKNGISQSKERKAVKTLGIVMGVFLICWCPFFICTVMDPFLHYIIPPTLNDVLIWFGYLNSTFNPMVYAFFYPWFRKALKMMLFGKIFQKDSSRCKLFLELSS

[20] = biological target: T2, Trace amine-associated receptor 1; assay: Counterscreen for agonists of the human trace amine associated receptor 1 (hTAAR1): Fluorescence-based cell-based high throughput dose response assay to identify hTAAR1 agonist that also desensitize TAAR1 receptor response.; format: functional
cells [21] = format: functional, cell-based; remark: listed apart in the source
cells [22] = assay: cells
[23] = biological target: T3, Tyrosine-protein phosphatase non-receptor type 7 (Homo sapiens, UniProt P35236); assay: HePTP tyrosine phosphatase activity blockers – biochemical, absorbance, leukemia target, primary screen (AID 521); format: functional
T3 sequence (P35236 whole entry): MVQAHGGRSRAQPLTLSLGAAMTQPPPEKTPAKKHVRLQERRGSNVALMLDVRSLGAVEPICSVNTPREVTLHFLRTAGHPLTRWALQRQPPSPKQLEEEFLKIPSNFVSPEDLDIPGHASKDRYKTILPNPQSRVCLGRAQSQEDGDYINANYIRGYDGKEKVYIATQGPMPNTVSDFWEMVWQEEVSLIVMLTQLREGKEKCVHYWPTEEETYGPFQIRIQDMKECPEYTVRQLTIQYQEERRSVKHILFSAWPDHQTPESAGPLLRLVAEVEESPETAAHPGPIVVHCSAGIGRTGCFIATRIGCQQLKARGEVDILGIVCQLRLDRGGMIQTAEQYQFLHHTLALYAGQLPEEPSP

[24] = Luminescence Cell-Based Dose Response to Identify Activators of 5'UTR Stem-Loop Driven Prion Protein mRNA Translation in H4-C Neuroglioblastoma Cells. [Related pubchem assays: 1829 (Project Summary), 1814 (Primary HTS)]; format: functional
[25] = Luminescence Cell-Based Dose Confirmation HTS to Identify Activators of 5'UTR Stem-Loop Driven Alpha-Synuclein mRNA Translation in H4 Neuroglioblastoma Cells. [Related pubchem assays: 1829 (Project Summary), 1814 (Primary HTS)]; format: functional
[26] = Luminescence Cell-Based Dose Response HTS to Identify Activators of Luciferase Translation or Activity in H4 […] Cells. [Related pubchem assays: 1829 (Project Summary), 1814 (Primary HTS)]; format: functional
H4 = assay: Luminescence Cell-Based Dose Response HTS to Identify Activators of 5'UTR Stem-Loop Driven Prion Protein mRNA Translation in H4 Neuroglioblastoma Cells. [Related pubchem assays: 1829 (Project Summary), 1814 (Primary HTS)]; format: functional; conditions: Homo sapiens
[27] = Luminescence Cell-Based Dose Response to Identify Activators of Luciferase Translation or Activity in H4-C Neuroglioblastoma Cells. [Related pubchem assays: 1829 (Project Summary), 1814 (Primary HTS)]; format: functional
[28] = Luminescence Cell-Based Dose Confirmation to Identify Activators of 5'UTR Stem-Loop Driven Alpha-Synuclein mRNA Translation in H4 Neuroglioblastoma Cells. [Related pubchem assays: 1829 (Project Summary), 1814 (Primary HTS)]; format: functional
HeLa = assay: ATP-based viability loss in HeLa cells – cell-based, CellTiter-Glo luminescence, cherry-pick samples, cytotoxicity control for MITF activator project, dose response (AID 540259); format: functional; conditions: Homo sapiens
Protein skinhead-1 = biological target: T4, Protein skinhead-1 (Caenorhabditis elegans, UniProt P34707); format: functional
T4 sequence (P34707 whole entry): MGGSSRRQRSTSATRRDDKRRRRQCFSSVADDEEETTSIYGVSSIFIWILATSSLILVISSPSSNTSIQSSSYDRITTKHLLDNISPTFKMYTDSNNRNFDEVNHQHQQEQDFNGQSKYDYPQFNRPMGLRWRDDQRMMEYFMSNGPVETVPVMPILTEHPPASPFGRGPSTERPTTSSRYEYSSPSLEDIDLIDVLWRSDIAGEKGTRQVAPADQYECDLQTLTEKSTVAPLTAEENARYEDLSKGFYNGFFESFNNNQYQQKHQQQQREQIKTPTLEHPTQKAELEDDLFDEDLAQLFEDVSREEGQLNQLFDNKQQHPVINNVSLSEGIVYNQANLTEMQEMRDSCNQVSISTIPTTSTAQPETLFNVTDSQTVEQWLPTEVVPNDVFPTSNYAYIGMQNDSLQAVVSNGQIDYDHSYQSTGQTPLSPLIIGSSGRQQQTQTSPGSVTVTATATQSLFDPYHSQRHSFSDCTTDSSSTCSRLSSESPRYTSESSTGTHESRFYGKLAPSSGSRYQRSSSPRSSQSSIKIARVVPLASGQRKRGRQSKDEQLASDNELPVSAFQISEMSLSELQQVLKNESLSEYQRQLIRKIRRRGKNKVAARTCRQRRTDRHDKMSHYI

Mitogen-activated protein kinase 10, sequence (P53779 whole entry): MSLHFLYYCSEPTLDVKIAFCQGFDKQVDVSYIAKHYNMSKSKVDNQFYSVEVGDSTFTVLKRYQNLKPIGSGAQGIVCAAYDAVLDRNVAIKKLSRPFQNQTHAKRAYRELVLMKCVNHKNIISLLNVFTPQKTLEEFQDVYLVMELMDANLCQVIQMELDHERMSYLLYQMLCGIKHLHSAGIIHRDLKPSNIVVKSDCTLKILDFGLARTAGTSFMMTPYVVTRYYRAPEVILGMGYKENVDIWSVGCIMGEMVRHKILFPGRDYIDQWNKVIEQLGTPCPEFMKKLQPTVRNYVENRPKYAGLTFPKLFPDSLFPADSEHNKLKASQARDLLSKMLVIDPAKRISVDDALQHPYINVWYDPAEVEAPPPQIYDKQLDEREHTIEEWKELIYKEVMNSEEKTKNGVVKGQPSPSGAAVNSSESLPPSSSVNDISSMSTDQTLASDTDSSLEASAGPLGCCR

## c1ccc(-n2ncc3c(NCc4ccco4)ncnc32)cc1
Cells [1]
  EC50: > 350 µM (not active)
Cells [2]
  EC50: > 350 µM (not active)
[3]
  IC50: 60.9 µM (not active)

## C[C@H]1O[C@@H](OC2CC[C@]3(C=O)[C@H]4CC[C@]5(C)[C@@H](C6=CC(=O)OC6)CC[C@]5(O)[C@@H]4CC[C@]3(O)C2)CC2OC(C)(C)OC21 (stereo not given in full)
BJ [4]
  EC50: 1.01 µM (active)
Vero [5]
  CC50: < 0.039 µM (active)
BJ [6]
  EC50: 1.37 µM (inconclusive)
BJ [7]
  EC50: 1.28 µM (inconclusive)
[8]
  EC50: 1.14 µM (active)
Vero [9]
  IC50: < 0.05 µM (active)
Vero [10]
  CC50: 0.1 µM (active)

## O=C(N/N=C/C(Br)=C\c1ccccc1)c1[nH]nc2c1CCC2
Cells [1]
  EC50: > 350 µM (not active)
BJ [6]
  EC50: 0.223 µM (inconclusive)
[11]
  IC50: 0.183 µM (active)
Cells [2]
  EC50: 17.8 µM (active)
[8]
  EC50: 0.3 µM (inconclusive)
Cells [12]
  IC50: > 67.5 µM (inactive)
[13]
  IC50: > 0.834 µM (active)

## Cc1cccc(OCc2nnc(SCC(=O)NC3CCCC3)n2C)c1
[14]
  IC50: 4.79 µM (active)
[15]
  IC50: 6.66 µM (active)

## N=C(N)N/N=C/c1ccccc1
[16]
  EC50: < 0.1 µM (active)
[17]
  EC50: > 60 µM (not active)
Cells [18]
  IC50: > 29.9 µM (inactive)
[19]
  EC50: > 3.32 µM (active)
[20]
  IC50: 1.67 µM (active)
Cells [21]
  EC50: > 29.9 µM (inactive)
Cells [22]
  EC50: 0.112 µM (active)

## CC1(C)N(O)CC(c2cccs2)=[N+]1[O-]
[23]
  IC50: > 100 µM (not active)

## O=C(Nc1ccccc1)O/N=C/c1ccc(F)cc1
[24]
  EC50: 0.477 µM (active)
[25]
  EC50: < 0.1 µM (active)
[26]
  EC50: < 0.1 µM (active)
H4
  EC50: 8.27 µM (active)
[27]
  EC50: 0.372 µM (active)
[28]
  EC50: 0.321 µM (active)
HeLa
  AC50: 54.2 µM (active)
Protein skinhead-1
  IC50: > 100 µM (inactive)
